Measured values as given in ChEMBL document CHEMBL1128975, “The effect of fluorine substitution on the antimalarial activity of tebuquine” (Bioorg Med Chem Lett, 1996).

Tests used:
Plasmodium falciparum [1] = assay: Antimalarial activity against Plasmodium falciparum K1; format: functional, organism-based
Plasmodium falciparum [2] = assay: Antimalarial activity against Plasmodium falciparum 3D7; format: functional, organism-based

`CC(C)(C)NCc1cc(Nc2ccnc3cc(Cl)ccc23)cc(-c2ccc(Cl)cc2)c1F` [FLOUROTEBUQUINE] gave an IC50 (Plasmodium falciparum [1]) of 74 nM and an IC50 (Plasmodium falciparum [2]) of 58 nM.

With `CC(C)(C)NCc1cc(Nc2ccnc3cc(Cl)ccc23)cc(-c2ccc(Cl)cc2)c1O` [TEBUQUINE] the IC50 (Plasmodium falciparum [1]) was 21 nM and the IC50 (Plasmodium falciparum [2]) was 18 nM.
